Measured values from patent US9896551B2, “Phosphaphenanthrene-based compound and related preparation method and application” (Elite Electronic Material(Zhongshan) Co., Ltd., priority 2015, dated 2018).

Legend:
Assay type in all cases: physicochemical
[1] = Test Example 1: solvent compatibility, observed by naked eyes; conditions: for Compatibility in solvent (precipitation, appearance of solution): stand for 12 hours; for Compatibility in solvent (solubility, appearance of solution): the initial state
Source text: The phosphaphenanthrene-based compound of the embodiment 2, the conventional phosphaphenanthrene-based compound of the comparison 1 and the conventional phosphaphenanthrene-based compound of the comparison 2 are used as test samples of the test example 1. The test samples are respectively dissolved in toluene, methyl ethyl ketone, and acetone, so as to give a test to the compatibilities of the test samples in these solvents.

[2] = Dissolution of the phosphaphenanthrene-based compound in different solvents; design: key: 1: “easily soluble”, which means the solute is dissolved with stirring at room temperature and the solution is clear; “soluble”, which means the solute is dissolved with stirring when being heated up to 120° C. and the solution is clear; 3: “insoluble”, which means the solute is not dissolve even being heated and stirred; conditions: about 5 grams in about 30 ml
Description: (§1) In addition, about 5 grams per serving of the phosphaphenanthrene-based compound are weighed and added to about 30 ml of solvents respectively. Stir with or without heating the solution to dissolve the solute. Observe the dissolution of the phosphaphenanthrene-based compound in different solvents, and the results are shown in Table 1, wherein the numeral “1” represents “easily soluble”, which means the solute is dissolved with stirring at room temperature and the solution is clear; the numeral “2” represents “soluble”, which means the solute is dissolved with stirring when being heated up to 120° C. and the solution is clear; the numeral “3” represents “insoluble”, which means the solute is not dissolve even being heated and stirred.
In addition, about 5 grams per serving of the phosphaphenanthrene-based compound (as shown in formula (XVI)) are weighed and added to about 30 ml of solvents respectively. Stir with or without heating to dissolve the solute. Observe dissolution of the phosphaphenanthrene-based compound in different solvents, and the results are shown in Table 2, wherein the numeral “1” represents “easily soluble”, which means the solute is dissolved with stirring at room temperature and the solution is clear; the numeral “2” represents “soluble”, which means the solute is dissolved with stirring when being heated up to […] and the solution is clear; the numeral “3” represents “insoluble”, which means the solute is not dissolve even being heated and stirred.

[3] = as above; design: key: 1: “easily soluble”, which means the solute is dissolved with stirring at room temperature and the solution is clear; “soluble”, which means the solute is dissolved with stirring when being heated up to […] and the solution is clear; 3: “insoluble”, which means the solute is not dissolve even being heated and stirred; conditions: Methyl ethyl ketone; about 5 grams in about 30 ml
Description: as §1
In addition, about 5 grams per serving of the phosphaphenanthrene-based compound (as shown in formula (XVI)) are weighed and added to about 30 ml of solvents respectively. Stir with or without heating to dissolve the solute. […]

C=Cc1ccc(COc2ccc(OCc3ccc(C=C)cc3)c(P3(=O)Oc4ccccc4-c4ccccc43)c2)cc1 (stereo not drawn) [Comparison 1]
Compatibility in solvent (precipitation, appearance of solution) ([1]; Acetone): Precipitated
Compatibility in solvent (solubility, appearance of solution) ([1]; Acetone): Soluble, clear
Compatibility in solvent (precipitation, appearance of solution) ([1]; Methyl ethyl ketone): Precipitated
Compatibility in solvent (solubility, appearance of solution) ([1]; Methyl ethyl ketone): Soluble, clear
Compatibility in solvent (precipitation, appearance of solution) ([1]; Toluene): No
Compatibility in solvent (solubility, appearance of solution) ([1]; Toluene): Soluble, clear

C=Cc1ccc(COc2ccc(-c3ccc(OCc4ccc(C=C)cc4)c(P4(=O)Oc5ccccc5-c5ccccc54)c3)cc2P2(=O)Oc3ccccc3-c3ccccc32)cc1 (stereo not drawn) [Comparison 2]
Compatibility in solvent (precipitation, appearance of solution) ([1]; Acetone): Precipitated
Compatibility in solvent (solubility, appearance of solution) ([1]; Acetone): Soluble, clear
Compatibility in solvent (precipitation, appearance of solution) ([1]; Methyl ethyl ketone): Precipitated
Compatibility in solvent (solubility, appearance of solution) ([1]; Methyl ethyl ketone): Soluble, clear
Compatibility in solvent (precipitation, appearance of solution) ([1]; Toluene): No
Compatibility in solvent (solubility, appearance of solution) ([1]; Toluene): Soluble, clear

O=P1(C(O)c2ccc(C(O)P3(=O)Oc4ccccc4-c4ccccc43)cc2)Oc2ccccc2-c2ccccc21 (stereo not drawn) [Embodiment 1]
Dissolution ([2]; 1-Methoxy-2-propyl acetate (PMA)): 3
Dissolution ([2]; Cyclohexanone (CYC)): 3
Dissolution ([2]; Dimethylacetamide (DMAC)): 3
Dissolution ([2]; Methanol (MT)): 3
Dissolution ([2]; Methyl ethyl ketone (MEK)): 3
Dissolution ([2]; N,N-Dimethylformamide (DMF)): 2
Dissolution ([2]; Proprylene glycol monomethyl ether (PM)): 3
Dissolution ([2]; Toluene (TL)): 3

C=Cc1ccc(COC(c2ccc(C(OCc3ccc(C=C)cc3)P3(=O)Oc4ccccc4-c4ccccc43)cc2)P2(=O)Oc3ccccc3-c3ccccc32)cc1 (stereo not drawn) [Embodiment 2]
Dissolution [3]: 2
Dissolution ([2]; Dimethylacetamide): 1
Dissolution ([2]; Dimethylformamide): 1
Dissolution ([2]; Toluene): 1
Compatibility in solvent (precipitation, appearance of solution) ([1]; Acetone): No
Compatibility in solvent (solubility, appearance of solution) ([1]; Acetone): Soluble, clear
Compatibility in solvent (precipitation, appearance of solution) ([1]; Methyl ethyl ketone): No
Compatibility in solvent (solubility, appearance of solution) ([1]; Methyl ethyl ketone): Soluble, clear
Compatibility in solvent (precipitation, appearance of solution) ([1]; Toluene): No
Compatibility in solvent (solubility, appearance of solution) ([1]; Toluene): Soluble, clear
